Reference: PMC12082625, “Redox-State-Dependent Structural Changes within a Prokaryotic 6–4 Photolyase” (Journal of the American Chemical Society, 2025)

What was measured:
Format in all cases: binding
Cc(6–4)PL [1] = biological target: T1, Cc(6–4)PL (Caulobacter vibrioides, UniProt Q9AAF5); assay: XFEL serial femtosecond crystallography and synchrotron crystal structures; conditions: dark-adapted oxidized state, room temperature; catalytic FAD site; co-purified cofactor
T1 construct: gene CC_0646; pET28-based, nickel-NTA purified (His-tagged by implication) from E. coli BL21(DE3); model spans M1-S508; contains FAD, DLZ and [4Fe-4S] cluster
T1 sequence (Q9AAF5 1-509): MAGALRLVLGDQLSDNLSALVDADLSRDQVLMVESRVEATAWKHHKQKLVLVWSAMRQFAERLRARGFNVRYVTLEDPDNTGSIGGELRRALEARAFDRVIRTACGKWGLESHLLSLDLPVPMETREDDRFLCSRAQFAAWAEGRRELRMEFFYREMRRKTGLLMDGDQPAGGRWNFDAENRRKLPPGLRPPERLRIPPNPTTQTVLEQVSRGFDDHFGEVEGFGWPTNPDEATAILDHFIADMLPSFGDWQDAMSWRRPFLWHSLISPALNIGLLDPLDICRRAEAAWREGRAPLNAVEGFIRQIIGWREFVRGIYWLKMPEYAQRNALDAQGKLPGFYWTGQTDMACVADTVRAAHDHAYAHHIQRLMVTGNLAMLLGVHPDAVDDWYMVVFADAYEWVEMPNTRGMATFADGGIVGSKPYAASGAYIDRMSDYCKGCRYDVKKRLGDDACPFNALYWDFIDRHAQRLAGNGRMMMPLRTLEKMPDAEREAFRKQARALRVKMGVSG

Cc(6–4)PL [2] = biological target: T1, Cc(6–4)PL; assay: XFEL serial femtosecond crystallography; in crystallo UV-vis; conditions: photoreduced in crystals, 50 mM DTT, anaerobic, 30 min white light and blue LED; catalytic FAD site
Cc(6–4)PL [3] = biological target: T2, Cc(6–4)PL (Caulobacter vibrioides, UniProt Q9AAF5, K48A); assay: X-ray crystal structure (synchrotron, […] Å); UV/vis spectroscopy; conditions: antenna site; occupancy in crystal, not an affinity
T2 construct: gene CC_0646; pET28-based, nickel-NTA purified (His-tagged by implication) from E. coli BL21(DE3); model spans M1-S508; contains FAD, DLZ and [4Fe-4S] cluster

Cc(6–4)PL [4] = biological target: T1, Cc(6–4)PL; assay: XFEL serial femtosecond crystallography; conditions: dark-adapted oxidized state, room temperature; N-terminal antenna site; co-purified cofactor

T2 sequence (Q9AAF5 entry or part of it K48A): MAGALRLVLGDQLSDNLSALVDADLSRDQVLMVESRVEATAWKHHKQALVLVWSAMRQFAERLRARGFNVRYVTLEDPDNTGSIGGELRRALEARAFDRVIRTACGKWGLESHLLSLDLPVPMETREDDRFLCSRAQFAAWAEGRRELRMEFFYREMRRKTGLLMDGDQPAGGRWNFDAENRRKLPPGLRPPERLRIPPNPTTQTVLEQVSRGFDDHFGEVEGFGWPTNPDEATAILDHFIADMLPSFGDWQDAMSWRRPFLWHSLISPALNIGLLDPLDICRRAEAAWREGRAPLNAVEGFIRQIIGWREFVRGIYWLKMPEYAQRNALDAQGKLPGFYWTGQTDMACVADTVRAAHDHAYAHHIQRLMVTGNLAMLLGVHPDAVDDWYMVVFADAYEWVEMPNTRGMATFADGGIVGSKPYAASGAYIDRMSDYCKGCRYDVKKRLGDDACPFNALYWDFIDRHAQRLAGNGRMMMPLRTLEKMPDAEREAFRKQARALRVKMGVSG

`Cc1cc2nc3c(=O)[nH]c(=O)nc-3n(C[C@H](O)[C@H](O)[C@H](O)COP(=O)(O)OP(=O)(O)OC[C@H]3O[C@@H](n4cnc5c(N)ncnc54)[C@H](O)[C@@H]3O)c2cc1C` [FADox] was tested, and the “XFEL serial femtosecond crystallography and synchrotron crystal structures” value (Cc(6–4)PL [1]) was “the damage-free structures reveal FAD’s binding arrangement with its isoalloxazine moiety engaging key amino acid residues”.
With `Cc1cc2c(cc1C)N(C[C@H](O)[C@H](O)[C@H](O)COP(=O)(O)OP(=O)(O)OC[C@H]1O[C@@H](n3cnc4c(N)ncnc43)[C@H](O)[C@@H]1O)c1[nH]c(=O)[nH]c(=O)c1N2` [FADH–] the “XFEL serial femtosecond crystallography; in crystallo UV-vis” value (Cc(6–4)PL [2]) was “structural changes occurred in the FAD binding site compared to the FADox state”.
With `Cc1nc2c(=O)[nH]c(=O)nc-2n(C[C@H](O)[C@H](O)[C@H](O)CO)c1C` [DLZ] the occupancy (Cc(6–4)PL [3]) was ~ 50% and the “XFEL serial femtosecond crystallography” value (Cc(6–4)PL [4]) was “Structural analysis reveals an intricate DLZ binding pocket with interactions involving several key residues”.
